# Measurements taken from the supplement of paper PMC13380429.
# ± gives the standard deviation of the averaged measurements.
# Experiments:
# Conditions in all cases: 72 h
# U2OS [1] = experiment: cell viability relative to DMSO; higher = less toxic
# Vero E6 [2] = experiment: as above
# Caco-2 [3] = experiment: as above
# Calu-3 [4] = experiment: as above
# HepG2 [5] = experiment: as above
# U2OS [6] = experiment: relative viability EC50 (midpoint between 100% and the lowest measured viability); higher = less toxic
# Vero E6 [7] = experiment: as above
# Caco-2 [8] = experiment: as above
# Calu-3 [9] = experiment: as above
# HepG2 [10] = experiment: as above
# U2OS [11] = experiment: drug sensitivity score (DSS) for viability; higher = more toxic; extreme values may be limits of the assay
# Vero E6 [12] = experiment: as above
# Caco-2 [13] = experiment: as above
# Calu-3 [14] = experiment: as above
# HepG2 [15] = experiment: as above
SMILES,cell viability (U2OS [1]; 1 nM) [%],cell viability (U2OS [1]; 10 nM) [%],cell viability (U2OS [1]; 100 nM) [%],cell viability (U2OS [1]; 1000 nM) [%],cell viability (U2OS [1]; 10000 nM) [%],cell viability (Vero E6 [2]; 1 nM) [%],cell viability (Vero E6 [2]; 10 nM) [%],cell viability (Vero E6 [2]; 100 nM) [%],cell viability (Vero E6 [2]; 1000 nM) [%],cell viability (Vero E6 [2]; 10000 nM) [%],cell viability (Caco-2 [3]; 1 nM) [%],cell viability (Caco-2 [3]; 10 nM) [%],cell viability (Caco-2 [3]; 100 nM) [%],cell viability (Caco-2 [3]; 1000 nM) [%],cell viability (Caco-2 [3]; 10000 nM) [%],cell viability (Calu-3 [4]; 1 nM) [%],cell viability (Calu-3 [4]; 10 nM) [%],cell viability (Calu-3 [4]; 100 nM) [%],cell viability (Calu-3 [4]; 1000 nM) [%],cell viability (Calu-3 [4]; 10000 nM) [%],cell viability (HepG2 [5]; 1 nM) [%],cell viability (HepG2 [5]; 10 nM) [%],cell viability (HepG2 [5]; 100 nM) [%],cell viability (HepG2 [5]; 1000 nM) [%],cell viability (HepG2 [5]; 10000 nM) [%],relative viability EC50 (U2OS [6]) [µM],relative viability EC50 (Vero E6 [7]) [µM],relative viability EC50 (Caco-2 [8]) [µM],relative viability EC50 (Calu-3 [9]) [µM],relative viability EC50 (HepG2 [10]) [µM],drug sensitivity score (U2OS [11]),drug sensitivity score (Vero E6 [12]),drug sensitivity score (Caco-2 [13]),drug sensitivity score (Calu-3 [14]),drug sensitivity score (HepG2 [15])
O=C(O)Cn1nnc(-c2cc(N3CCC(Oc4cc(F)ccc4Br)CC3)no2)n1 [MK-8245],103,102,96.2,101,98.6,98.3,94.8,98.8,92.2,86.3,101,106,99.5,102,94.8,102,108,97.7,90.8,96.5,109,95.8,88.3,88.8,76.1,> 10,> 10,> 10,> 10,> 10,0,0.1,0,0,2.2
c1ccc(-c2ccc(CNc3nc(-c4ccccn4)nnc3-c3ccccc3)cc2)cc1 [ML228],100,99.1,94.3,38.8,3.6,93.1,92.3,97,9.5,4.5,104,98.2,89.3,49.5,13.6,96,102,101,48.6,17.5,91.4,104,103,31.4,21,0.685,0.339,0.692,0.818,0.484,12.8,16.9,11.2,10.7,12.5
COc1ccc(-c2cnc3c(-c4cccc5ncccc45)cnn3c2)cc1 [ML347],101 ± 2,100 ± 3.1,105 ± 6.3,102 ± 1.8,96.8 ± 4.3,102,100,99,99.3,105,107 ± 14,100 ± 5.3,96.5 ± 2,96.05 ± 0.35,98.9 ± 8.6,106 ± 9.3,101 ± 7.9,99.5 ± 2.8,101 ± 4.9,93.4 ± 8.5,105 ± 4,96 ± 9.3,99.3 ± 3.2,98.1 ± 0.57,97.2 ± 6.9,> 10,> 10,> 10,> 10,> 10,0,0,0,0.1 ± 0.14,0
NC(=O)C[S+]([O-])C(c1ccccc1)c1ccccc1 (stereo not given) [MODAFINIL],99.2 ± 1.5,97.8 ± 2.8,99.7 ± 2.9,98.2 ± 3,100 ± 4.6,97.3 ± 6,103 ± 14,96.2 ± 15,88.6 ± 4,104 ± 5.5,103 ± 3.7,99.5 ± 2.2,109 ± 10,100.4 ± 0.42,97 ± 2.3,93 ± 6.5,99.4 ± 0.57,99.3 ± 6.7,102.2 ± 0.35,95.8 ± 7.3,102 ± 17,103 ± 1.9,99.2 ± 12,96.1 ± 15,95.3 ± 4.4,> 10,> 10,> 10,> 10,> 10,0,0,0,0,0.55 ± 0.78
Cc1nc2c(O)cccc2c(=O)[nH]1 [NU-1025],104,100,100,99.9,101,99.7,102,98.7,100,98.1,101,92.4,96.6,96.7,101,96.6,99.6,102,106,99.8,104,109,98.4,109,101,> 10,> 10,> 10,> 10,> 10,0,0,0,0,0
CCCCCCCC/C=C\CCCCCCCC(=O)N[C@@H](CO)Cc1ccc(O)cc1 [OMDM-2],96.8,101,96.7,100,99.7,92.4,92,97.4,93.7,109,87.1,94.4,97.1,91.8,102,106,102,99.5,96.7,97.3,100,93.3,114,106,99.6,> 10,> 10,> 10,> 10,> 10,0,0,0,0,0
CC1(CN)Cc2ccccc2C1 [ORG-9768],99.5,98,101,102,102,91.2,96.8,94,98.5,109,93,87.1,101,93.9,110,109,105,95.4,102,96.9,98,109,96.3,112,102,> 10,> 10,> 10,> 10,> 10,0,0,0,0,0
